Legend:
[1] = system: experimental allergic encephalomyelitis (EAE) in DA rats; experiment: Treatment of EAE in DA rats with liposomally encapsulated MBP peptides (Example 5); assay type: in vivo; conditions: 150 μg per animal daily subdermally days 6-11, score 0-5
Description: To induce experimental allergic encephalomyelitis (EAE) in DA rats having a mass of 220-250 g ([…]), 10 μg of myelin basic protein encephalogenic peptide fragment ARTTHYGSLPQKSQRSQ (SEQ ID NO:4; Anaspec, US) emulsified in Freund's complete adjuvant (Difco, US) at a concentration of 10% (m/v) was subdermally injected into the forepaw. The rats were weighted and monitored for EAE neurological symptoms daily. The EAE symptom profile of each rate was scored according to the following scale: (0)—absence of EAE symptoms; (1)—decrease in tail tonicity; (2)—decrease in righting reflex; (3)—paresis; (4)—full paralysis; and (5)—agony or death. Intermediary symptoms were scored by increasing or decreasing the value by 0.5 units. Six days after EAE induction, animals were randomly distributed into several groups (12 animals each).
Between days six and eleven after induction, rats in each respective group were subdermally injected with the liposomal preparation described in Example 2 (emulsified in phosphate saline solution, pH 7.4), a positive control preparation of glatiramer acetate (GA; copaxone, Teva Pharmaceutical Industries Ltd, Israel), a prototype peptide: DENPVVIIFFKNIVTPRT (SEQ ID NO:5), or a buffered phosphate saline solution (pH 7.4) placebo. The peptide, Glatiramer acetate, and liposomal preparations were formulated immediately prior to administration using buffered phosphate saline solution (pH 7.4). 0.1 mL of each composition was administered daily at a concentration of 150 μg per animal.

[2] = system: multiple sclerosis (cerebrospinal form, remissive course); experiment: Treatment of a human subject diagnosed with multiple sclerosis (Example 7); assay type: in vivo; conditions: patient, 500 mg once every two weeks
Description: A patient diagnosed with multiple sclerosis (cerebrospinal form, remissive course), in the relapse stage, was previously subjected to repeated corticosteroid treatment. […] At the time of treatment, the patient presented with: lateral nystagmus when looking to the right, active tendon reflex, S<D in the legs, active upper abdominal reflex, absent middle and lower abdominal reflex, bilateral Babinski's symptom, foot clonus (more expressed in the right foot), no paresis in the extremities, muscle tonicity unchanged, ataxic gait, loss of balance in the Romberg stance, ataxia when performing hccl-shin test, and urine retention. The value of the patient's neurological deficit on the EDSS scale was 6.
The patient also presented with ophthalmic blanching of temporal halves of optic nerve heads. After studying the patient's PBMC, the activity of T-lymphocytcs with respect to MBP was determined at a stimulation index (SI) of 7.45. Levels of serum IgG antibodies were 75 units per ml.
With the patient's consent, the prototype peptide composition was administered once every two weeks at a dosage of 500 mg. 7 days after each injection, the patient's peripheral (venous) blood was sampled in order to determine changes in T-lymphocyte activity with respect to MBP, as well as autoantibody levels. […] At week four, the patients IgG autoantibody level increased to 112 units per mL, and T-cell SI doubled. […]

“DENPVVIIFFKNIVTPRT (a prototype peptide) [prototype peptide used as comparator]” was tested, and the “Evaluation of EAE symptom intensity, average” value (“Evaluation” below) ([1]; day 0 after EAE induction) was 0.00, the “Evaluation” value ([1]; day 1 after EAE induction) was 0.00 and the “Evaluation” value ([1]; day 2 after EAE induction) was 0.00. The “Evaluation” value ([1]; day 3 after EAE induction) was 0.00, the “Evaluation” value ([1]; day 4 after EAE induction) was 0.00 and the “Evaluation” value ([1]; day 5 after EAE induction) was 0.00. The “Evaluation” value ([1]; day 6 after EAE induction) was 0.00, the “Evaluation” value ([1]; day 7 after EAE induction) was 0.00 and the “Evaluation” value ([1]; day 8 after EAE induction) was 0.58. For the same sequence, the “Evaluation” value ([1]; day 9 after EAE induction) was 1.33, the “Evaluation” value ([1]; day 10 after EAE induction) was 2.42 and the “Evaluation” value ([1]; day 11 after EAE induction) was 2.33. The “Evaluation” value ([1]; day 12 after EAE induction) was 2.50, the “Evaluation” value ([1]; day 13 after EAE induction) was 2.17 and the “Evaluation” value ([1]; day 14 after EAE induction) was 2.00. The “Evaluation” value ([1]; day 15 after EAE induction) was 1.83, the “Evaluation” value ([1]; day 16 after EAE induction) was 1.67 and the “Evaluation” value ([1]; day 17 after EAE induction) was 1.33. The “Evaluation” value ([1]; day 18 after EAE induction) was 1.42, the “Evaluation” value ([1]; day 19 after EAE induction) was 1.08 and the “Evaluation” value ([1]; day 20 after EAE induction) was 0.83. For the same sequence, the “Evaluation” value ([1]; day −1 after EAE induction) was 0.00, the “clinical presentation of MS” value ([2]; over the course of 7 weeks) was “progressed slightly” and the “T-cell SI” value ([2]; week four, before treatment 7.45) was “doubled”.
